Experimental data reported in patent publication US20220002279A1, “NOVEL IMIDAZOLE DERIVATIVE” (priority 2018, published 2022).
Values after ≈ are worked out from the molar mass of the structure shown. Where two headings read alike, the source gives them in different places.

Columns and labels:
[1] = target: T1, Escherichia coli LpxC enzyme (Escherichia coli, UniProt P0A725); test: Inhibitory activity on Escherichia coli LpxC enzyme (fluorescamine method); type: biochemical
T1 construct: made in house; host or cells: Escherichia coli
T1 sequence (P0A725 1-305): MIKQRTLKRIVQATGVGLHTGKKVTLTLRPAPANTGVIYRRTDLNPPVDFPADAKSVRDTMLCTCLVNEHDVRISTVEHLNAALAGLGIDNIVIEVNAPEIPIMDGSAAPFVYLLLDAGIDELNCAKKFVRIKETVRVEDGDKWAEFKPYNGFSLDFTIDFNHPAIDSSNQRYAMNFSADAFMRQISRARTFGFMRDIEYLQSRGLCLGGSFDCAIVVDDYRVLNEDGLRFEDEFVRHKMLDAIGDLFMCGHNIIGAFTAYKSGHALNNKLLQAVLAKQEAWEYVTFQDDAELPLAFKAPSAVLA
Method in brief: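 LpxC reacted with UDP-3-O-(R-3-hydroxymyristoyl)-N-acetylglucosamine; product amine quantified after fluorescamine stop and pH 8.0 phosphate buffer addition, at 390 nm/495 nm. Inhibition curve built from a range of test compound concentrations.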

[2] = test system: Escherichia coli strain ATCC25922; test: Antimicrobial activity, MIC by broth microdilution; type: cell-based; conditions: ATCC25922, 18 h, cation-adjusted Mueller-Hinton broth, about 5×10^5 CFU/mL, 35° C., about 18 hours, read-out: MIC Escherichia coli ATCC25922
Method in brief: (§1)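 MIC read by eye as the lowest drug level lacking visible growth after roughly 18 h at 35° C. Cells from heart infusion agar, set to McFarland 0.5 and diluted, were inoculated at about 5×10^5 CFU/mL into cation-adjusted Mueller-Hinton broth with compound, per adapted CLSI microdilution.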

[3] = test system: Klebsiella pneumoniae strain ATCC13883; test: Antimicrobial activity, MIC by broth microdilution; type: cell-based; conditions: ATCC13883, cation-adjusted Mueller-Hinton broth, about 5×10^5 CFU/mL, 35° C., about 18 hours, read-out: MIC Klebsiella pneumoniae ATCC13883
Method in brief: as §1

[4] = test system: Pseudomonas aeruginosa strain ATCC27853; test: Antimicrobial activity, MIC by broth microdilution; type: cell-based; conditions: ATCC27853, 18 h, cation-adjusted Mueller-Hinton broth, about 5×10^5 CFU/mL, 35° C., about 18 hours, read-out: MIC Pseudomonas aeruginosa ATCC27853
Method in brief: as §1

[5] = fluorescamine detection, 3.1 nmol/L enzyme, 20 μmol/L substrate, pH 6.5, 120 min, read-out: IC50 (inhibitory activity on Escherichia coli LpxC enzyme, Fluoresamine method)

| Structure (SMILES) | IC50 [1, 5] [nM] | MIC [2] [µg/mL] | MIC [3] [µg/mL] | MIC [4] [µg/mL] | IC50 [1] [nM] |
| --- | --- | --- | --- | --- | --- |
| CCN1C[C@@H]2[C@@H](C#Cc3ccc(-c4cc(Cn5ccnc5[C@H](C)O)no4)cc3)[C@@H]2C1 [Compound 99, (1S)-1-(1-{[5-(4-{[(1R,5S,6s)-3-ethyl-3-azabicyclo[3.1.0]hexan-6-yl]ethynyl}phenyl)-1,2-oxazol-3-yl]methyl}-1H-imidazol-2-yl)ethan-1-ol] | 91.8 | 2 (≈ 4.97 µM) | 2 (≈ 4.97 µM) | 16 (≈ 39.8 µM) |  |
| C[C@H](O)c1nccn1Cc1cc(-c2ccc(C#C[C@@H]3[C@H]4CN(C=O)C[C@@H]34)cc2)no1 [Compound 102, (1R,5S,6s)-6-({4-[5-({2-[(1S)-1-hydroxyethyl]-1H-imidazol-1-yl}methyl)-1,2-oxazol-3-yl]phenyl}ethynyl)-3-azabicyclo[3.1.0]hexane-3-carbaldehyde] | 103 | 0.5 (≈ 1.24 µM) | 1 (≈ 2.48 µM) | 64 (≈ 159 µM) |  |
| C[C@H](O)c1nccn1Cc1cc(-c2ccc(C#C[C@H]3C[C@H](NC=O)C3)cc2)on1 [Compound 103, N-[trans-3-({4-[3-({2-[(1S)-1-Hydroxyethyl]-1H-imidazol-1-yl}methyl)-1,2-oxazol-5-yl]phenyl}ethynyl)cyclobutyl]formamide] |  | 1 (≈ 2.56 µM) | 2 (≈ 5.12 µM) | > 128 | 88 |
| CNC(=O)C(=O)N1C[C@@H]2[C@@H](C#Cc3ccc(-c4cc(Cn5ccnc5[C@H](C)O)no4)cc3)[C@@H]2C1 [Compound 105, 2-[(1R,5S,6s)-6-({4-[3-({2-[(1S)-1-Hydroxyethyl]-1H-imidazol-1-yl}methyl)-1,2-oxazol-5-yl]phenyl}ethynyl)-3-azabicyclo[3.1.0]hexan-3-yl]-N-methyl-2-oxoacetamide] | 63.8 | 1 (≈ 2.18 µM) | 1 (≈ 2.18 µM) | 16 (≈ 34.8 µM) |  |
| C[C@H](O)c1nccn1Cc1cc(-c2ccc(C#C[C@@H]3[C@H]4CN(C(=O)C(N)=O)C[C@@H]34)cc2)on1 [Compound 107, 2-[(1R,5S,6s)-6-((4-[3-((2-[(1S)-1-hydroxyethyl]-1H-imidazol-1-yl}methyl)-1,2-oxazol-5-yl]phenyl}ethynyl)-3-azabicyclo[3.1.0]hexan-3-yl]-2-oxoacetamide] | 78.6 | 2 (≈ 4.49 µM) | 1 (≈ 2.24 µM) | 8 (≈ 18 µM) |  |
| C[C@H](O)c1nccn1Cc1cc(-c2ccc(C#C[C@@H]3[C@H]4CN(C(=O)C(=O)N(C)C)C[C@@H]34)cc2)on1 [Compound 108, 2-[(1R,5S,6s)-6-((4-[3-((2-[(1S)-1-hydroxyethyl]-1H-imidazol-1-yl}methyl)-1,2-oxazol-5-yl]phenyl}ethynyl)-3-azabicyclo[3.1.0]hexan-3-yl]-N,N-dimethyl-2-oxoacetamide] | 122 | 4 (≈ 8.45 µM) | 4 (≈ 8.45 µM) | 16 (≈ 33.8 µM) |  |
| C[C@H](O)c1nccn1Cc1cc(-c2ccc(C#CC3C(CO)C3CO)cc2)on1 (stereo partly drawn) [Compound 109, (1S)-1-(1-{[5-(4-{[2,3-Bis(hydroxymethyl)cyclopropyl]ethynyl}phenyl)-1,2-oxazol-3-yl]methyl}-1H-imidazol-2-yl)ethan-1-ol] |  | 16 (≈ 40.7 µM) | 32 (≈ 81.3 µM) | 64 (≈ 163 µM) | 131 |
| C[C@H](O)c1nccn1Cc1cc(-c2ccc(C#C[C@@H]3[C@H]4CN(CCCC(=O)O)C[C@@H]34)cc2)no1 [Compound 111, 4-[(1R,5S,6s)-6-({4-[5-({2-[(1S)-1-hydroxyethyl]-1H-imidazol-1-yl}methyl)-1,2-oxazol-3-yl]phenyl}ethynyl)-3-azabicyclo[3.1.0]hexan-3-yl]butanoic acid] | 197 | 1 (≈ 2.17 µM) | 4 (≈ 8.69 µM) | 8 (≈ 17.4 µM) |  |
| C[C@H](O)c1nccn1Cc1cc(-c2ccc(C#CC3CC(NC4COC4)C3)cc2)on1 (stereo partly drawn) [Compound 112, (1S)-1-[l-({5-[4-({3-[(oxetan-3-yl)amino]cyclobutyl}ethynyl)phenyl]-1,2-oxazol-3-yl}methyl)-1H-imidazol-2-yl]ethan-1-ol] |  | 0.5 (≈ 1.19 µM) | 1 (≈ 2.39 µM) | 32 (≈ 76.5 µM) | 79.7 |
| C[C@H](O)c1nccn1[C@H](CN)c1cc(-c2ccc(C#CC3(C)COC3)cc2)on1 [Compound 116, (1S)-1-{1-[(1R)-2-amino-1-(5-{4-[(3-methyloxetan-3-yl)ethynyl]phenyl}-1,2-oxazol-3-yl)ethyl]-1H-imidazol-2-yl}ethan-1-ol] | 79.1 | 0.5 (≈ 1.27 µM) | 2 (≈ 5.1 µM) | 64 (≈ 163 µM) |  |
| C[C@H](O)c1nccn1Cc1cc(-c2ccc(C#CC3CCS(=O)(=O)C3)cc2)on1 (stereo partly drawn) [Compound 119, 3-((4-(3-((2-((S)-1-hydroxyethyl)-1H-imidazol-1-yl)methyl)isoxazol-5-yl)phenyl)ethynyl)tetrahydrothiophene 1,1-dioxide] | 265 | 8 (≈ 19.4 µM) | 16 (≈ 38.9 µM) | > 128 |  |
| CC(O)CN1C[C@@H]2[C@@H](C#Cc3ccc(-c4cc(Cn5ccnc5[C@H](C)O)on4)cc3)[C@@H]2C1 (stereo partly drawn) [Compound 121, 1-[(1R,5S,6s)-6-({4-[5-((2-[(1S)-1-hydroxyethyl]-1H-imidazol-1-yl}methyl)-1,2-oxazol-3-yl]phenyl}ethynyl)-3-azabicyclo[3.1.0]hexan-3-yl]propan-2-ol] | 98.5 | 0.5 (≈ 1.16 µM) | 1 (≈ 2.31 µM) | 16 (≈ 37 µM) |  |
| C[C@H](O)c1nccn1Cc1cc(-c2ccc(C#C[C@@H]3[C@H]4CN(CCN)C[C@@H]34)cc2)on1 [Compound 122, (1S)-1-(1-{[5-(4-{[(1R,5S,6s)-3-(2-aminoethyl)-3-azabicyclo[3.1.0]hexan-6-yl]ethynyl}phenyl)-1,2-oxazol-3-yl]methyl}-1H-imidazol-2-yl)ethan-1-ol] | 84.6 | 4 (≈ 9.58 µM) | 4 (≈ 9.58 µM) | 4 (≈ 9.58 µM) |  |
| C[C@H](O)c1nccn1Cc1cc(-c2ccc(C#CC3CCN(C=O)CC3)cc2)on1 [Compound 127, 4-({4-[3-({2-[(1S)-1-hydroxyethyl]-1H-imidazol-1-yl}methyl)-1,2-oxazol-5-yl]phenyl}ethynyl)piperidine-1-carbaldehyde] | 60.1 | 2 (≈ 4.94 µM) | 2 (≈ 4.94 µM) | > 64 |  |
| CC(O)CN1CCC(C#Cc2ccc(-c3cc(Cn4ccnc4[C@H](C)O)no3)cc2)CC1 (stereo partly drawn) [Compound 128, 1-[4-((4-[3-({2-[(1S)-1-hydroxyethyl]-1H-imidazol-1-yl]methyl)-1,2-oxazol-5-yl]phenyl}ethynyl)piperidin-1-yl]propan-2-ol] | 331 | 8 (≈ 18.4 µM) | 16 (≈ 36.8 µM) | > 128 |  |
